Experimental data taken from BindingDB's records for doi:10.1021/acsmedchemlett.8b00576 (Usona Institute, 2019).

Molecular target: GTPase KRas (Homo sapiens, UniProt P01116)
Experiment: Inhibition of GDP loaded biotin-labeled KRAS G12C mutant (unknown origin) assessed as reduction in guanine nucleotide exchange preincubated for 4 hrs followed by GST-RAF-RBD addition in presence of GTPgammaS by FRET assay

GTPase KRas, sequence (P01116 whole entry G12C): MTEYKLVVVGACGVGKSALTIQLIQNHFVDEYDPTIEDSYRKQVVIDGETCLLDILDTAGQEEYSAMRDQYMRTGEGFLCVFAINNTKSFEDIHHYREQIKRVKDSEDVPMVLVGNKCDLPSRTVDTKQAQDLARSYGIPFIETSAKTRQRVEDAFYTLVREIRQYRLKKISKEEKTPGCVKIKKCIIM

IC50: 21 nM
SMILES: C=CC(=O)N1CCN2c3nc(N4CC(N(C)C)C4)nc4cc(-c5c(C)ccc6[nH]ncc56)c(Cl)c(c34)OC[C@@H]2C1
